Assay results reported in US20240148821A1, “PHARMACEUTICAL USE OF CYCLIC PEPTIDE COMPOUND” (CHUGAI SEIYAKU KABUSHIKI KAISHA, priority 2021, published 2024).
Numbered stars: 1 amine (or outer) side, 2 acyl side, 3 side chain; on linkers, the order of the positions; unused ones are H or OH. Bridge positions count the residues as written; N and C are the ends. Square brackets hold non-standard residues; d marks the D form. Peptide text beside a SMILES is read from it. * marks the point of attachment. hPhe(3-Cl-4-CF3) = N[C@@H](CCc1ccc(C(F)(F)F)c(Cl)c1)C(=O)O; hPhe(3-F,4-CF3) = N[C@@H](CCc1ccc(C(F)(F)F)c(F)c1)C(=O)O; X112 = O=C([C@H](CCOc1ccc(C(F)(F)F)cc1)N[*:1])[*:2]; 3Oxa8azabicyclo(3.2.1)octane = C1CC2COCC1N2*; NMeGly(cPent) = CN[C@H](C(=O)O)C1CCCC1; NMe3Pal = CN[C@@H](Cc1cccnc1)C(=O)O; NMeCha = CN[C@@H](CC1CCCCC1)C(=O)O; cisHyp = O=C(O)[C@@H]1C[C@H](O)CN1; NMehLeu = CN[C@@H](CCC(C)C)C(=O)O; NEtLeu = CCN[C@@H](CC(C)C)C(=O)O; NMeChg = CN[C@H](C(=O)O)C1CCCCC1; NMeD = CN[C@@H](CC(=O)O)C(=O)O; NMeL = CN[C@@H](CC(C)C)C(=O)O; NMeV = CN[C@H](C(=O)O)C(C)C; d(β3hA) = C[C@@H](N)CC(=O)O; NMeS = CN[C@@H](CO)C(=O)O; Morpholide = C1CN(*)CCO1; NAllylGly = C=CCNCC(=O)O; NMeA = CN[C@@H](C)C(=O)O; Piperidide = C1CCN(*)CC1; Pyrrolidide = C1CCN(*)C1; dNMeA = CN[C@H](C)C(=O)O; Ac5c = NC1(C(=O)O)CCCC1; Aze = O=C(O)[C@@H]1CCN1; Ethyl(2,2-F2) = FC(F)C*; Sar = CNCC(=O)O; Propyl = CCC*

What follows are molecules tested against protein-protein interaction between Kras and SOS1 (biotin-tagged human Kras loaded with GDP, His-tagged human SOS1) (Homo sapiens (Human), UniProt P01116, G12D) (assay: Protein-protein interaction inhibition between Kras and SOS1 (KrasG12D-SOS PPI) using AlphaScreen). Conditions: AlphaScreen; biotin-tagged human Kras loaded with GDP, His-tagged human SOS1; read-out: KRAS G12D-SOS PPI IC50.
Assay type: biochemical

In order of rising IC50:
1. CCCOC[C@H]1C(=O)N(C)CC(=O)N[C@@H](CCc2ccc(C(F)(F)F)c(F)c2)C(=O)N2CCC[C@H]2C(=O)NC2(CCCC2)C(=O)N(C)[C@@H](C2CCCC2)C(=O)N(C)[C@H](C(=O)N2CCCCC2)CC(=O)N(C)[C@@H](CC(C)C)C(=O)N[C@@H]([C@@H](C)CC)C(=O)N(C)[C@@H](C)C(=O)N2CC[C@H]2C(=O)N1C [Compound 1029] ([NMeL]I[NMeA][Aze][NMeS](Propyl)[Sar][hPhe(3-F,4-CF3)]P[Ac5c][NMeGly(cPent)][NMeD]-Piperidide; lactam N-11)  1.4 nM
2. CC[C@H](C)[C@@H]1NC(=O)[C@H](CC(C)C)N(C)C(=O)C[C@@H](C(=O)N2CCCCC2)N(C)C(=O)[C@H](C2CCCCC2)N(C)C(=O)C2(CCCC2)NC(=O)[C@@H]2C[C@H](OCC(F)F)CN2C(=O)[C@H](CCc2ccc(C(F)(F)F)c(Cl)c2)NC(=O)CN(C)C(=O)[C@H](CC2CCCCC2)N(C)C(=O)CN(C)C(=O)CN(C)C1=O [Compound 2123] ([NMeL]I[Sar][Sar][NMeCha][Sar][hPhe(3-Cl-4-CF3)][cisHyp](Ethyl(2,2-F2))[Ac5c][NMeChg][NMeD]-Piperidide; lactam N-11)  1.5 nM
3. CC[C@H](C)[C@@H]1NC(=O)[C@H](CC(C)C)N(C)C(=O)C[C@@H](C(=O)N2CCCC2)N(C)C(=O)[C@H](C2CCCCC2)N(C)C(=O)C2(CCCC2)NC(=O)[C@H](Cc2cccnc2)N(C)C(=O)[C@H](CCc2ccc(C(F)(F)F)c(Cl)c2)NC(=O)CN(C)C(=O)[C@H](CC2CCCCC2)N(C)C(=O)CN(C)C(=O)CN(C)C1=O [Compound 1693] ([NMeL]I[Sar][Sar][NMeCha][Sar][hPhe(3-Cl-4-CF3)][NMe3Pal][Ac5c][NMeChg][NMeD]-Pyrrolidide; lactam N-11)  1.7 nM
4. C=CCN1CC(=O)NC2(CCCC2)C(=O)N(C)[C@@H](C2CCCCC2)C(=O)N(C)[C@H](C(=O)N2CCCCC2)CC(=O)N(C)[C@@H](CC(C)C)C(=O)N[C@@H]([C@@H](C)CC)C(=O)N(C)CC(=O)N(C)CC(=O)N(C)[C@@H](CC2CCCCC2)C(=O)N(C)CC(=O)N[C@@H](CCc2ccc(C(F)(F)F)c(Cl)c2)C1=O [Compound 899] ([NMeL]I[Sar][Sar][NMeCha][Sar][hPhe(3-Cl-4-CF3)][NAllylGly][Ac5c][NMeChg][NMeD]-Piperidide; lactam N-11 (inferred); C-terminus assumed)  1.9 nM
5. CC[C@H](C)[C@@H]1NC(=O)[C@H](CC(C)C)N(CC)C(=O)C[C@@H](C(=O)N2CCOCC2)N(C)C(=O)[C@H](C2CCCC2)N(C)C(=O)C2(CCCC2)NC(=O)[C@@H]2CCCN2C(=O)[C@H](CCc2ccc(C(F)(F)F)c(Cl)c2)NC(=O)CN(C)C(=O)[C@H](C2CCCC2)N(C)C(=O)[C@@H]2CCN2C(=O)[C@H](C)NC1=O [Compound 1140] ([NEtLeu]IA[Aze][NMeGly(cPent)][Sar][hPhe(3-Cl-4-CF3)]P[Ac5c][NMeGly(cPent)][NMeD]-Morpholide; lactam N-11)  2 nM
6. CCCOC[C@H]1C(=O)N(C)CC(=O)N[C@@H](CCc2ccc(C(F)(F)F)c(Cl)c2)C(=O)N2CCC[C@H]2C(=O)NC2(CCCC2)C(=O)N(C)[C@@H](C2CCCC2)C(=O)N(C)[C@H](C(=O)N2C3CCC2COC3)CC(=O)N(C)[C@@H](CCC(C)C)C(=O)N[C@@H]([C@@H](C)CC)C(=O)N[C@@H](C)C(=O)N2CC[C@H]2C(=O)N1C [Compound 1326] ([NMehLeu]IA[Aze][NMeS](Propyl)[Sar][hPhe(3-Cl-4-CF3)]P[Ac5c][NMeGly(cPent)][NMeD]-{3Oxa8azabicyclo(3.2.1)octane}; lactam N-11)  5.1 nM
7. CC[C@H](C)[C@@H]1NC(=O)[C@H](C)N(C)C(=O)C[C@@H](C)NC(=O)[C@H](C(C)C)N(C)C(=O)C2(CCCC2)NC(=O)[C@@H]2CCCN2C(=O)[C@H](CCc2ccc(C(F)(F)F)c(Cl)c2)NC(=O)[C@@H](C)N(C)C(=O)[C@H](CC2CCCCC2)N(C)C(=O)[C@@H]2CCCN2C(=O)[C@@H]2CCN2C1=O [Compound 2009] (cyclo([Ac5c][NMeV][d(β3hA)][NMeA]I[Aze]P[NMeCha][dNMeA][hPhe(3-Cl-4-CF3)]P))  82 nM
8. CC[C@H](C)[C@@H]1NC(=O)[C@H](C)N(C)C(=O)C[C@@H](C(=O)N2CCCCC2)N(C)C(=O)[C@H](C2CCCCC2)N(C)C(=O)C2(CCCC2)NC(=O)[C@@H]2CCCN2C(=O)[C@H](CCOc2ccc(C(F)(F)F)cc2)NC(=O)CN(C)C(=O)[C@H](CC2CCCCC2)N(C)C(=O)CN(C)C(=O)CN(C)C1=O [Compound 2041, (3S,9S,18S,21S,25S,28S,34S)-28-cyclohexyl-9-(cyclohexylmethyl)-7,10,13,16,21,22,26,29-octamethyl-18-[(1S)-1-methylpropyl]-25-(piperidine-1-carbonyl)-3-[2-[4-(trifluoromethyl)phenoxy]ethyl]spiro[1,4,7,10,13,16,19,22,26,29,32-undecazabicyclo[32.3.0]heptatriacontane-31,1′-cyclopentane]-2,5,8,11,14,17,20,23,27,30,33-undecone] ([NMeA]I[Sar][Sar][NMeCha][Sar][X112]P[Ac5c][NMeChg][NMeD]-Piperidide; lactam N-11)  110 nM
